# Assay results from patent US20140163061A1, “Methods For Reducing Blood Pressure” (FibroGen, Inc., priority 2008, published 2014).
# What was measured:
# [1] = system: human subjects with chronic kidney disease; assay: Blood pressure in human CKD subjects over a 24 hour period after oral dosing, Example 5; assay type: in vivo
# Experimental: Hypertension is a common condition in patients with chronic kidney disease. (Agarwal et al. (2005) Hypertension 46:514-520.) The effect of a compound of the present invention on blood pressure in anemic and non-anemic human subjects with advanced stage chronic kidney disease was examined. All study subjects had chronic kidney disease (CKD), defined as having a glomerular filtration rate (GFR)<59 ml/min. Some of these CKD subjects also had anemia, defined as having hemoglobin (Hb) levels<11 g/dL. Subjects were orally administered compound A or a placebo two or three times per week for four weeks. Blood pressure readings (i.e. systolic, diastolic, and mean arterial pressure) were taken at various times with a sphygmomanometer according to standard assessments. In one series of experiments, the effect of methods and medicaments of the present invention on blood pressure in anemic and non-anemic subjects with advanced stage chronic kidney disease was examined over a 24 hour period. Subjects were orally administered compound A or a placebo and blood pressure readings were taken at 1, 2, 3, 4, 6, 12, and 24 hours following treatment. […] Table 3, Table 4, and Table 5 below show hourly changes in mean arterial pressure (MAP), systolic blood pressure (SBP), and diastolic blood pressure (DBP) following oral administration of […] to human CKD subjects.
# [2] = system: Nx rats (5/6 nephrectomy, hypertensive chronic kidney disease); assay: Nx rats treated with various HIF prolyl hydroxylase inhibitors, change in systolic blood pressure after four weeks, Example 4; assay type: in vivo, rat; settings: 40 mg/kg oral
# Experimental: (§1) A characteristic pathophysiology found in the uremic chronic kidney disease (CKD) population is hypertension. […] (Priyadarshi et al. (2002) Kidney Int 61:542-546; Coleman et al. (2006) Proc Natl Acad Sci USA 103:5965-5970.) The surgical procedure used to generate the rat remnant kidney was performed according to modification of the procedure described by Priyadarshi et al. (supra) or according to modification of the procedure described by Tanaka et al. (2005, Lab Invest 85:1292-1307). Separate studies used either male Sprague Dawley rats (280-300 g) or female Wistar rats (220-250 g).
# Animals were divided into two groups of which one group (sham) underwent sham surgery and the other group (Nx) was subjected to 5/6 nephrectomy as follows. Animals were anesthetized under isoflurane, and a midline abdominal incision was made, followed by blunt dissection of the renal pedicles. Two or three branches of the left renal artery were ligated to infarct two thirds of the left kidney, while the right kidney underwent simultaneous nephrectomy. The infarct was verified by observing the change in kidney color. Animal body temperature was maintained constant, and warm (˜37° C.) saline (1.0 mL) was administered directly into the abdomen. Thereafter, the incision was sutured and the animal was allowed to recover and have free access to regular food and water. Animal body weight and mortality were closely monitored.
# Starting 35 days after surgery, Nx and sham animals were randomly divided into groups and treated with either vehicle or compound A. Compound was dosed three times per week by oral gavage at 20 or 40 mg/kg compound per dose. Blood pressure (BP) was measured using a Kent XBP1000 system (Kent Scientific Corp., Torrington, Conn.) or a Muromachi tail-cuff blood pressure system (Muromachi Kikai Co., Ltd., Tokyo, Japan), both having volume/pressure recording technology and used according to the manufacturer's instruction. Rats were slightly warmed under a lamp and conditioned carefully before the measurement. BP was recorded as the mean value of 3 separate measurements obtained at each session and reported herein as mean±SEM. Results are compared using 1-way analysis of variance (ANOVA) and Student-Newman-Keuls method (SigmaStat, SPSS Science, Chicago, Ill.).
# In another series of experiments, rats subjected to 5/6 nephrectomy were treated 35 days after surgery according to the dosing schedule described in Example 3 above with a HIF prolyl hydroxylase inhibitor. Individual compound selected from the group consisting of compounds A and C-K were administered by oral gavage at 8, 20, 30, or 40 mg/kg (see Table 1 and Table 2). Systolic blood pressure was recorded at day 35 (baseline) and again immediately following the last dose of compound. Table 1 and Table 2 show changes in systolic blood pressure following four weeks of oral administration of various compounds of the present invention to Nx rats.
# [3] = system: Nx rats (5/6 nephrectomy, hypertensive chronic kidney disease); assay: Rat remnant kidney model (5/6 nephrectomy) of CKD, tail-cuff systolic blood pressure, Example 3; assay type: in vivo; settings: mean±SEM, p<0.05 vs vehicle-treated Nx rats (195.7±24.4)
# Experimental: as §1
# Animals were divided into two groups of which one group (sham) underwent sham surgery and the other group (Nx) was subjected to 5/6 nephrectomy as follows. […] Animal body weight and mortality were closely monitored.
# Starting 35 days after surgery, Nx and sham animals were randomly divided into groups and treated with either vehicle or compound A. Compound was dosed three times per week by oral gavage at 20 or 40 mg/kg compound per dose. Blood pressure (BP) was measured using a Kent XBP1000 system (Kent Scientific Corp., Torrington, Conn.) or a Muromachi tail-cuff blood pressure system (Muromachi Kikai Co., Ltd., Tokyo, Japan), both having volume/pressure recording technology and used according to the manufacturer's instruction. […]
compound,measurement,setting,value
"Cc1nc(C(=O)NCC(=O)O)c(O)c2ccc(Oc3ccccc3)cc12 [A, [(4-hydroxy-1-methyl-7-phenoxy-isoquinoline-3-carbonyl)-amino]-acetic acid]",Mean change from Baseline Diastolic BP (mmHg),"[1]; All Subjects, 3 hour",−5.45 mmHg
same,Mean change from Baseline MAP (mmHg),"[1]; All Subjects, 3 hour",−4.35 mmHg
same,Mean change from Baseline Systolic BP (mmHg),"[1]; All Subjects, 3 hour",−2.09 mmHg
same,Mean change from Baseline Diastolic BP (mmHg),"[1]; All Subjects, 4 hour",−6.36 mmHg
same,Mean change from Baseline MAP (mmHg),"[1]; All Subjects, 4 hour",−6.60 mmHg
same,Mean change from Baseline Systolic BP (mmHg),"[1]; All Subjects, 4 hour",−7.00 mmHg
same,Mean change from Baseline Diastolic BP (mmHg),"[1]; All Subjects, 6 hour",−7.00 mmHg
same,Mean change from Baseline MAP (mmHg),"[1]; All Subjects, 6 hour",−9.18 mmHg
same,Mean change from Baseline Systolic BP (mmHg),"[1]; All Subjects, 6 hour",−13.45 mmHg
same,Mean change from Baseline Diastolic BP (mmHg),"[1]; All Subjects, 12 hour",−2.55 mmHg
same,Mean change from Baseline MAP (mmHg),"[1]; All Subjects, 12 hour",−3.29 mmHg
same,Mean change from Baseline Systolic BP (mmHg),"[1]; All Subjects, 12 hour",−4.73 mmHg
same,Mean change from Baseline Diastolic BP (mmHg),"[1]; All Subjects, 24 hour",−1.55 mmHg
same,Mean change from Baseline MAP (mmHg),"[1]; All Subjects, 24 hour",−2.55 mmHg
same,Mean change from Baseline Systolic BP (mmHg),"[1]; All Subjects, 24 hour",−4.45 mmHg
same,Mean change from Baseline Diastolic BP (mmHg),"[1]; Anemic, 3 hour",−13.67 mmHg
same,Mean change from Baseline MAP (mmHg),"[1]; Anemic, 3 hour",−11.10 mmHg
same,Mean change from Baseline Systolic BP (mmHg),"[1]; Anemic, 3 hour",−6.33 mmHg
same,Mean change from Baseline Diastolic BP (mmHg),"[1]; Anemic, 4 hour",−12.67 mmHg
same,Mean change from Baseline MAP (mmHg),"[1]; Anemic, 4 hour",−14.67 mmHg
same,Mean change from Baseline Systolic BP (mmHg),"[1]; Anemic, 4 hour",−19.00 mmHg
same,Mean change from Baseline Diastolic BP (mmHg),"[1]; Anemic, 6 hour",−10.00 mmHg
same,Mean change from Baseline MAP (mmHg),"[1]; Anemic, 6 hour",−12.33 mmHg
same,Mean change from Baseline Systolic BP (mmHg),"[1]; Anemic, 6 hour",−17.33 mmHg
same,Mean change from Baseline Diastolic BP (mmHg),"[1]; Anemic, 12 hour",−5.00 mmHg
same,Mean change from Baseline MAP (mmHg),"[1]; Anemic, 12 hour",−2.00 mmHg
same,Mean change from Baseline Systolic BP (mmHg),"[1]; Anemic, 12 hour",3.67 mmHg
same,Mean change from Baseline Diastolic BP (mmHg),"[1]; Anemic, 24 hour",−3.33 mmHg
same,Mean change from Baseline MAP (mmHg),"[1]; Anemic, 24 hour",−3.77 mmHg
same,Mean change from Baseline Systolic BP (mmHg),"[1]; Anemic, 24 hour",−5.00 mmHg
same,Mean change from Baseline Diastolic BP (mmHg),"[1]; Non-Anemic, 3 hour",−2.38 mmHg
same,Mean change from Baseline MAP (mmHg),"[1]; Non-Anemic, 3 hour",−3.81 mmHg
same,Mean change from Baseline Systolic BP (mmHg),"[1]; Non-Anemic, 3 hour",−0.50 mmHg
same,Mean change from Baseline Diastolic BP (mmHg),"[1]; Non-Anemic, 4 hour",−4.00 mmHg
same,Mean change from Baseline MAP (mmHg),"[1]; Non-Anemic, 4 hour",−3.58 mmHg
same,Mean change from Baseline Systolic BP (mmHg),"[1]; Non-Anemic, 4 hour",−2.50 mmHg
same,Mean change from Baseline Diastolic BP (mmHg),"[1]; Non-Anemic, 6 hour",−5.88 mmHg
same,Mean change from Baseline MAP (mmHg),"[1]; Non-Anemic, 6 hour",−8.00 mmHg
same,Mean change from Baseline Systolic BP (mmHg),"[1]; Non-Anemic, 6 hour",−12.00 mmHg
same,Mean change from Baseline Diastolic BP (mmHg),"[1]; Non-Anemic, 12 hour",−1.63 mmHg
same,Mean change from Baseline MAP (mmHg),"[1]; Non-Anemic, 12 hour",−3.78 mmHg
same,Mean change from Baseline Systolic BP (mmHg),"[1]; Non-Anemic, 12 hour",−7.88 mmHg
same,Mean change from Baseline Diastolic BP (mmHg),"[1]; Non-Anemic, 24 hour",−0.88 mmHg
same,Mean change from Baseline MAP (mmHg),"[1]; Non-Anemic, 24 hour",−8.00 mmHg
same,Mean change from Baseline Systolic BP (mmHg),"[1]; Non-Anemic, 24 hour",−4.25 mmHg
same,blood pressure at 1 and 2 hours post dosing,"[1]; all CKD subjects, oral, same with placebo, data not shown",small increases in blood pressure
same,SBP (mmHg) Change from Baseline,[2],−31.10 mmHg
same,SBP (mmHg) Change from Vehicle,[2],−40.31 mmHg
same,systolic blood pressure (SBP),[3]; 20 mg/kg oral gavage three times per week,164.7±26.7 mmHg
same,systolic blood pressure (SBP),[3]; 40 mg/kg oral gavage three times per week,155.4±42.9 mmHg
